Patent publication US11096952B2, “Chemicals and methods to prevent and treat TGF-beta mediated activation of fibroblasts to reduce and treat cancer and fibrosis” (Board of Supervisors of Louisiana State University and …, priority 2016, dated 2021)

Key:
[1] = system: TGF-β-induced fibronectin expression; assay: Western blot of TGF-β-induced fibronectin expression in WPMY-1 fibroblasts; type: cell-based, human; conditions: WPMY-1, 5 ng/ml TGF-β, digoxin 30, 60, 120, 240 nM, 24 hours
Experimental: (§1) Inhibitors of CAF Differentiation. A. WPMY-1 cells were plated into each well of 4-chamber slice (for IF), or (C) in a 24 well plate (for western blot analysis). After cell attachment, vehicle or 5 ng/ml TGF-β was added into each well and incubated for 24 h in a 37° C. in a humidified incubator containing 5% CO2. For fluorescence detection (A), cells were fixed and stained with antibody detecting fibronectin and/or stained with DAPI to detect the nuclei. Protein was extracted with boiling Lamaelli buffer for WB (C) and blots were probed with anti-fibronectin or anti-tubulin antibodies. Fibronectin fluorescence (D and E) was measured in the presence or absence of TGF-β in 8 well replicates as follows. Cells were conditioned in serum-free DMEM for 48 hr prior to the addition of TGF-β. Images were acquired using a Cellomics platform with a mask shown in the schematic of (B). The mean of the total fluorescence intensity in each well was calculated from 300 cells per image field and up to 15 fields from each well for fibronectin. The fold change in fibronectin expression per acquired image (nuclei) is shown (Mean+/−SD).
Panel A1 is the control, Panel A2 is the TGF-β treated wells and Panel A3 is TGF-β plus PsA at 5 micromolar. Images were captured using the Cellomics imaging system.
Representative blots are shown with two exposures of fibronectin to account for strong signal intensity. n=3.
FIGS. 9A-9B: Increases in intracellular Ca^2+ prevent TGF-β-induced fibronectin expression. (A) WPMY-1 fibroblasts were treated with 2.5 μM thapsigargin±5 ng/ml TGF-β for 24 hours. (B) WPMY-1 fibroblasts were treated with 2.5-10 μM 3′,4′-dichlorobenzamil hydrochloride (DCB)±5 ng/ml TGF-β for 24 hours. Cell lysates were analyzed by western blot for fibronectin expression.
Because of the observed low nanomolar effective concentration of the cardiac glycosides, the inventors hypothesized that the cardiac glycosides may be acting by binding to their high affinity target, the Na^+/K^+ ATPase, and that action through the ATPase is the mechanism by which the cardiac glycosides are able to block TGF-β-induced fibronectin expression. It is well documented that inhibition of the Na^+/K^+ ATPase by digoxin leads to increases in intracellular Ca^2+ by preventing Ca^2+ efflux through the Na^+/Ca^2+ exchanger. In order to determine if increased intracellular Ca^2+ is sufficient to prevent TGF-β-induced fibronectin expression, the inventors utilized two compounds that increase intracellular Ca^2+ concentrations. 3′,4′-dichlorobenzamil hydrochloride (DCB) inhibits the Na^+/Ca^2+ exchanger, Na^+ transport, and sarcoplasmic reticulum Ca^2+ release channels. Thapsigargin inhibits the endoplasmic reticulum Ca^+ ATPase, preventing storage of Ca^2+ in the endoplasmic reticulurn, causing an accumulation in the cytoplasm. Cells were treated with 2.5-10 μM of DCB or thapsigargin±TGF-β for 24 hours.

[2] = system: TGF-β-induced fibronectin; assay: High content imaging (Cellomics) screen for inhibitors of fibronectin induction by TGF-beta in WPMY-1 cells; type: cell-based, human; conditions: WPMY-1, 0-100 uM, TGF-β 24 hour
Experimental: as §1, with “The fold change in fibronectin expression per acquired image (nuclei) is shown (Mean+/−SD).” left out
FIGS. 4A-4H: Dose response for identified hits. As shown in the four panels of FIG. 4A, fibronectin fluorescence was measured from images acquired following a Cellomics scan using WPMY-1 cells with concentrations of hits over a range of 0-100 uM. […] Results were expressed as percent inhibition caused by cells treated with TGF-β alone and without testing compound, which was considered as 100%. […]
FIGS. 14-15 show Table I—Prestwick Library and Table II—NIH Library chemicals respectively. […] A “hit” was defined as a compound causing at least 50% reduction of “Mean_RingTotal Intensity”, which is the fluorescence intensity within the defined ring (see FIG. 2) surrounding nucleus of each cell, summed for 300 cells per image and 15 fields per image. The solvent, 0.1% Dimethyl Sulfoxide (DMSO), with and without TGF-beta served as an internal control on each plate to normalize day-to-day and plate-to-plate variation with DMSO alone as low fluorescence (0%) and TGF-β treated as maximal fluorescence (100%). […]

MRC-5 fibroblasts = assay: Collagen/Matrigel contraction of MRC-5 fibroblasts; conditions: MRC-5 in collagen/Matrigel, 120 nM digoxin, 5 ng/ml TGF-β, 4 days
Experimental: WPMY-1 (A) and MRC-5 (B) fibroblasts were treated with or without 120 nM digoxin±5 ng/ml TGF-β. […] WPMY-1 (C) and MRC-5 (D) fibroblasts embedded in collagen/Matrigel were treated with or without 120 nM digoxin±5 ng/ml TGF-β for 4 days post seeding. Data are shown as percent contracted area from initial 100% well confluence. *P<0.05 and **P<0.01 indicate significant differences (n=3, Values are ±SEM).

[3] = system: TGF-β-induced CAF differentiation markers; assay: Real-Time PCR of CAF markers in MRC-5 fibroblasts; type: cell-based, human; conditions: MRC-5, 120 nM digoxin, 5 ng/ml TGF-β, 24 h
Experimental: In order to determine if digoxin prevents CAF differentiation or simply TGF-β-induced fibronectin expression, the inventors performed quantitative reverse transcriptase-PCR (qPCR) to analyze other CAF markers, including α-SMA, collagen 1a1 (COL1A1), fibroblast activation protein (FAP), and tenascin C (TNC). RNA was extracted from cells treated with 120 nM digoxin±TGF-β for 24 hours. […] Additionally, the inventors observed that α-SMA mRNA expression was already high in WPMY-1 cells and not increased by addition of TGF-β, but was reduced in response to digoxin treatment.

C[C@H]1O[C@@H](O[C@H]2[C@@H](O)C[C@H](O[C@H]3[C@@H](O)C[C@H](O[C@H]4CC[C@@]5(C)[C@H](CC[C@@H]6[C@@H]5C[C@@H](O)[C@]5(C)[C@@H](C7=CC(=O)OC7)CC[C@]65O)C4)O[C@@H]3C)O[C@@H]2C)C[C@H](O)[C@@H]1O [digoxin]
TGF-β-induced fibronectin expression (western blot) [1]: prevents TGF-β-induced fibronectin expression in a dose dependent manner | IC50 / potency for inhibition of TGF-β-induced fibronectin (dose response) [2]: very low IC50 | TGF-β induced contraction of fibroblasts (MRC-5 fibroblasts): inhibits TGF-β induced contraction of fibroblasts | TGF-β-induced expression of FN1, α-SMA, COL1A1, TNC mRNA [3]: prevented TGF-β-induced expression
